According to patent publication US20240150334A1, “HSD17B13 INHIBITORS AND/OR DEGRADERS” (Pfizer Inc., priority 2022, published 2024):

Experiments:
HSD17B13 enzyme = HSD17B13 enzyme (Homo sapiens (Human), UniProt Q7Z5P4); assay: hHSD17B13 IC50 Assay (FAC beta-estradiol), purified protein enzyme activity assay with NAD(P)H-Glo luciferase readout; format: biochemical; conditions: geometric mean, 12 μM FAC beta-estradiol, 500 μM NAD+, read-out: hHSD17B13_IC50 GMean IC50
Description: The following protocols may of course be varied by those skilled in the art. hHSD17B13 IC50 Assay (FAC beta-estradiol)
HSD17B13 enzyme inhibition potency of test compounds was determined using a purified protein biochemical enzyme activity assay, using NAD(P)H-Glo luciferase readout (Promega). HSD17B13 enzyme uses the oxidized form of nicotinamide adenine dinucleotide (NAD+) as a cofactor during metabolism of Beta-Estradiol (substrate) to […], while converting NAD+ to the reduced form (NADH). The Promega NAD(P)H-Glo™ assay is a homogeneous bioluminescent assay that generates a light signal from biochemical reactions that contain NADH (or nicotinamide adenine dinucleotide phosphate, NADPH). In the presence of NADH (or NADPH), the enzyme Reductase reduces a proluciferin reductase substrate to form luciferin. Luciferin then is quantified using Ultra-Glo™ Recombinant Luciferase (rLuciferase), and the light signal produced is proportional to the amount of NAD(P)H in the sample. […] The reaction was initiated by the addition of 2 μL/well purified HSD17B13 protein (30 nM FAC in assay buffer). Compound, substrate mix and HSD17B13 protein was incubated in the dark at room temperature for 2 hours before the addition of 3 μL/well NAD(P)H-Glo detection reagent, prepared from luciferase detection reagent and reductase/reductase substrate, as per manufacturer's instructions (Promega, G9061). Detection reagent was incubated in the dark for 1 hour at room temperature before plates were read on the Envision plate reader (Perkin Elmer) using a luminescent protocol. Data expressed as relative luminescent units (RLUs) were then normalized to control wells using Activity Base (IDBS). Zero percent effect (ZPE) was defined as RLUs generated from uninhibited HSD17B13 protein (vehicle control).

wild type human HSD17B13 = wild type human HSD17B13 (Homo sapiens (Human), UniProt Q7Z5P4); assay: HEK_Beta-Est LCMS_IC50_Tekcel, whole-cell HEK-HSD17B13 inhibition assay, estrone production by LCMS; format: cell-based; conditions: geometric mean, HEK cells stably expressing wild type human HSD17B13, 25 μM FAC beta-estradiol, read-out: HEK_Beta-Est LCMS_IC50—Tekcel GMean IC50
Chain of wild type human HSD17B13 (Q7Z5P4 20-300): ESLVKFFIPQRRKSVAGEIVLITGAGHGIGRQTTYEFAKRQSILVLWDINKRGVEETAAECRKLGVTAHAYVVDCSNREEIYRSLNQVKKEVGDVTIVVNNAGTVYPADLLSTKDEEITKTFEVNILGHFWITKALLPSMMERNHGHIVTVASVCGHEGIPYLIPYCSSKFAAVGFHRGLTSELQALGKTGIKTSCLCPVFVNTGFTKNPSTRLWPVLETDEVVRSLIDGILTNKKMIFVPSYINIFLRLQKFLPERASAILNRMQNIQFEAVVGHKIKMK
Summary of the method: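 Readout was LCMS quantitation of estrone made from beta-estradiol with NAD+ as cofactor. Whole HEK-HSD17B13 cells were given compound for 1 hour, then the reaction for 2 hours, both at 37° C. Product area ratios were normalized to vehicle controls as zero percent effect.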

Chain of HSD17B13 enzyme (Q7Z5P4 20-300): as above

| SMILES | IC50 (HSD17B13 enzyme) [nM] | IC50 (wild type human HSD17B13) [nM] |
| --- | --- | --- |
| Cn1cc(-c2ccc3cn([C@H]4CC[C@H](CNC(=O)c5cc(F)c(O)c(F)c5)CC4)nc3c2)c(C2CC2)n1 [Example 35, N-({(1r,4r)-4-[6-(3-cyclopropyl-1-methyl-1H-pyrazol-4-yl)-2H-indazol-2-yl]cyclohexyl}methyl)-3,5-difluoro-4-hydroxybenzamide] | 10 | 350 |
| O=C(NC[C@H]1CC[C@H](n2cc3ccc(-c4cnn5c4OCC5)cc3n2)CC1)c1cc(F)c(O)c(F)c1 [Example 37, N-({(1r,4r)-4-[6-(2,3-dihydropyrazolo[5,1-b][1,3]oxazol-7-yl)-2H-indazol-2-yl]cyclohexyl}methyl)-3,5-difluoro-4-hydroxybenzamide] | 8.4 | 150 |
| O=C(NC[C@H]1CC[C@H](n2cc3ccc(-c4cnn(C5CCOC5)c4)cc3n2)CC1)c1cc(F)c(O)c(F)c1 (stereo partly drawn) [Example 38, 3,5-difluoro-4-hydroxy-N-{[(1r,4r)-4-{6-[1-(oxolan-3-yl)-1H-pyrazol-4-yl]-2H-indazol-2-yl}cyclohexyl]methyl} benzamide] | 4.6 | 150 |
| Cc1c(-c2ccc3cn([C@H]4CC[C@H](CNC(=O)c5cc(F)c(O)c(F)c5)CC4)nc3c2)cnn1C [Example 39, N-({(1r,4r)-4-[6-(1,5-dimethyl-1H-pyrazol-4-yl)-2H-indazol-2-yl]cyclohexyl}methyl)-3,5-difluoro-4-hydroxybenzamide] | 5.7 | 250 |
| CC(C)n1cc(-c2ccc3cn([C@H]4CC[C@H](CNC(=O)c5cc(F)c(O)c(F)c5)CC4)nc3c2)cn1 [Example 40, 3,5-difluoro-4-hydroxy-N-{[(1r,4r)-4-{6-[1-(propan-2-yl)-1H-pyrazol-4-yl]-2H-indazol-2-yl}cyclohexyl]methyl} benzamide] | 4.3 | 160 |
| CN1CCn2ncc(-c3ccc4cn([C@H]5CC[C@H](CNC(=O)c6cc(F)c(O)c(F)c6)CC5)nc4c3)c21 [Example 41, 3,5-difluoro-4-hydroxy-N-({(1r,4r)-4-[6-(1-methyl-2,3-dihydro-1H-imidazo[1,2-b]pyrazol-7-yl)-2H-indazol-2-yl]cyclohexyl}methyl) benzamide] | 21 | 440 |
| COc1nn(C)cc1-c1ccc2cn([C@H]3CC[C@H](CNC(=O)c4cc(F)c(O)c(F)c4)CC3)nc2c1 [Example 42, 3,5-difluoro-4-hydroxy-N-({(1r,4r)-4-[6-(3-methoxy-1-methyl-1H-pyrazol-4-yl)-2H-indazol-2-yl]cyclohexyl}methyl) benzamide] | 11 | 260 |
| O=C(NC[C@H]1CC[C@H](n2cc3ccc(-c4cnn(C(F)F)c4)cc3n2)CC1)c1cc(F)c(O)c(F)c1 [Example 44, N-{[(1r,4r)-4-{6-[1-(difluoromethyl)-1H-pyrazol-4-yl]-2H-indazol-2-yl}cyclohexyl]methyl}-3,5-difluoro-4-hydroxybenzamide] | < 2.6 | 92 |
| O=C(NC[C@H]1CC[C@H](n2cc3ccc(-c4cnn(C5COC5)c4)cc3n2)CC1)c1cc(F)c(O)c(F)c1 [Example 45, 3,5-difluoro-4-hydroxy-N-{[(1r,4r)-4-{6-[1-(oxetan-3-yl)-1H-pyrazol-4-yl]-2H-indazol-2-yl}cyclohexyl]methyl} benzamide] | 5.4 | 220 |
| Cn1ncc(-c2ccc3cn([C@H]4CC[C@H](CNC(=O)c5cc(F)c(O)c(F)c5)CC4)nc3c2)c1C(F)(F)F [Example 46, 3,5-difluoro-4-hydroxy-N-{[(1r,4r)-4-{6-[1-methyl-5-(trifluoro-methyl)-1H-pyrazol-4-yl]-2H-indazol-2-yl}cyclohexyl]methyl}benzamide] | 9.5 | 450 |
| CCn1cc(-c2ccc3cn([C@H]4CC[C@H](CNC(=O)c5cc(F)c(O)c(F)c5)CC4)nc3c2)cn1 [Example 47, N-({(1r,4r)-4-[6-(1-ethyl-1H-pyrazol-4-yl)-2H-indazol-2-yl]cyclohexyl}methyl)-3,5-difluoro-4-hydroxybenzamide] | < 4.4 | 110 |
| Cc1nn(C)cc1-c1ccc2cn([C@H]3CC[C@H](CNC(=O)c4cc(F)c(O)c(F)c4)CC3)nc2c1 [Example 50, N-({(1r,4r)-4-[6-(1,3-dimethyl-1H-pyrazol-4-yl)-2H-indazol-2-yl]cyclohexyl}methyl)-3,5-difluoro-4-hydroxybenzamide] | 11 | 250 |
| Cn1cc(-c2ccc3cn([C@H]4CC[C@H](CNC(=O)c5cc(F)c(O)c(F)c5)CC4)nc3c2)c(F)n1 [Example 51, 3,5-difluoro-N-({(1r,4r)-4-[6-(3-fluoro-1-methyl-1H-pyrazol-4-yl)-2H-indazol-2-yl]cyclohexyl}methyl)-4-hydroxybenzamide] | 6.5 | 120 |
| Cc1cc(C)nc(-c2ccc3cn([C@H]4CC[C@H](CNC(=O)c5cc(F)c(O)c(F)c5)CC4)nc3c2)n1 [Example 52, N-({(1r,4r)-4-[6-(4,6-dimethylpyrimidin-2-yl)-2H-indazol-2-yl]cyclohexyl}methyl)-3,5-difluoro-4-hydroxybenzamide] | 15 | 330 |
| Cc1ccnc(-c2ccc3cn([C@H]4CC[C@H](CNC(=O)c5cc(F)c(O)c(F)c5)CC4)nc3c2)n1 [Example 53, 3,5-difluoro-4-hydroxy-N-({(1r,4r)-4-[6-(4-methylpyrimidin-2-yl)-2H-indazol-2-yl]cyclohexyl}methyl)benzamide] | 4.4 | 200 |
| O=C(NC[C@H]1CC[C@H](n2cc3ccc(-c4ncc(C5CC5)cn4)cc3n2)CC1)c1cc(F)c(O)c(F)c1 [Example 54, N-({(1r,4r)-4-[6-(5-cyclopropylpyrimidin-2-yl)-2H-indazol-2-yl]cyclohexyl}methyl)-3,5-difluoro-4-hydroxybenzamide] | 9.5 | 230 |
| N#Cc1cccc(-c2ccc3cn([C@H]4CC[C@H](CNC(=O)c5cc(F)c(O)c(F)c5)CC4)nc3c2)c1 [Example 55, N-({(1r,4r)-4-[6-(3-cyanophenyl)-2H-indazol-2-yl]cyclohexyl}methyl)-3,5-difluoro-4-hydroxybenzamide] | 17 | 230 |
| Cc1ccc(-c2ccc3cn([C@H]4CC[C@H](CNC(=O)c5cc(F)c(O)c(F)c5)CC4)nc3c2)nc1 [Example 57, 3,5-difluoro-4-hydroxy-N-({(1r,4r)-4-[6-(5-methylpyridin-2-yl)-2H-indazol-2-yl]cyclohexyl}methyl) benzamide] | 26 | 310 |
| O=C(NC[C@H]1CC[C@H](n2cc3ccc(-c4ncc(CO)cn4)cc3n2)CC1)c1cc(F)c(O)c(F)c1 [Example 58, 3,5-difluoro-4-hydroxy-N-{[(1r,4r)-4-{6-[5-(hydroxymethyl)pyrimidin-2-yl]-2H-indazol-2-yl}cyclohexyl]methyl} benzamide] | 25 | 280 |
| CC(C)(O)c1cncc(-c2ccc3cn([C@H]4CC[C@H](CNC(=O)c5cc(F)c(O)c(F)c5)CC4)nc3c2)c1 [Example 59, 3,5-difluoro-4-hydroxy-N-{[(1r,4r)-4-{6-[5-(2-hydroxypropan-2-yl)pyridin-3-yl]-2H-indazol-2-yl}cyclohexyl]methyl}benzamide] | 11 | 470 |
| Cn1cc(-c2ccc3cn([C@H]4CC[C@H](CNC(=O)c5cc(F)c(O)c(F)c5)CC4)nc3c2)cn1 [Example 60, 3,5-difluoro-4-hydroxy-N-({(1r,4r)-4-[6-(1-methyl-1H-pyrazol-4-yl)-2H-indazol-2-yl]cyclohexyl}methyl) benzamide] | 5.8 | 94 |
| O=C(NC[C@H]1CC[C@H](n2cc3ccc(-c4ccncc4)cc3n2)CC1)c1cc(F)c(O)c(F)c1 [Example 61, 3,5-difluoro-4-hydroxy-N-({(1r,4r)-4-[6-(pyridin-4-yl)-2H-indazol-2-yl]cyclohexyl}methyl)benzamide] | 4.8 | 120 |
| Cn1nccc1-c1ccc2cn([C@H]3CC[C@H](CNC(=O)c4cc(F)c(O)c(F)c4)CC3)nc2c1 [Example 62, 3,5-difluoro-4-hydroxy-N-({(1r,4r)-4-[6-(1-methyl-1H-pyrazol-5-yl)-2H-indazol-2-yl]cyclohexyl}methyl) benzamide] | 8.7 | 350 |
| Cc1ccc(-c2ccc3cn([C@H]4CC[C@H](CNC(=O)c5cc(F)c(O)c(F)c5)CC4)nc3c2)nn1 [Example 63, 3,5-difluoro-4-hydroxy-N-({(1r,4r)-4-[6-(6-methylpyridazin-3-yl)-2H-indazol-2-yl]cyclohexyl}methyl) benzamide] | 11 | 370 |
